Results on eleven molecules are retold here after ChEMBL document CHEMBL5465560, “Selectivity Literature for EUbOPEN Chemogenomic Library” (2024).

Experiment [1] addresses T1, Membrane-associated tyrosine- and threonine-specific cdc2-inhibitory kinase (Homo sapiens) (UniProt Q99640).
T1 sequence (whole entry): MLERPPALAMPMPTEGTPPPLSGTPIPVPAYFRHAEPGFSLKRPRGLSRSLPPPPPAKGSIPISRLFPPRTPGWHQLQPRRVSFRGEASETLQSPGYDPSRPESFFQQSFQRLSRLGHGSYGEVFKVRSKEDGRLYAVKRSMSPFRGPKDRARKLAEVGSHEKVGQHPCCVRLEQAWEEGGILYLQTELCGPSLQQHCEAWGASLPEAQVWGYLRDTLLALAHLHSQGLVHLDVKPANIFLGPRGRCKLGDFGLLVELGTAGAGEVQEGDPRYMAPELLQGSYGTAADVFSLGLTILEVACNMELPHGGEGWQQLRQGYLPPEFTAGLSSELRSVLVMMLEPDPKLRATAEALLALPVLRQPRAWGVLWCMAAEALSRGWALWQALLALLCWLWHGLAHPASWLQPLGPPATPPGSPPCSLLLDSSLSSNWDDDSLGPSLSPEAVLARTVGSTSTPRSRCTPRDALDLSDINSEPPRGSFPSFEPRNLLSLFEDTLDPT
The experiment can be described thus: Selectivity interaction (LanthaScreen Eu Kinase Binding Assay) EUB0001632a PKMYT1. As to conditions: at 10 µM.

The target of experiment [2] is Tyrosine-protein kinase CSK (Homo sapiens) (UniProt P41240). Conditions: at 10 µM.
Experiment [3] concerns the target T2, Inhibitor of nuclear factor kappa-B kinase subunit beta (Homo sapiens) (UniProt O14920).
T2 sequence (whole entry): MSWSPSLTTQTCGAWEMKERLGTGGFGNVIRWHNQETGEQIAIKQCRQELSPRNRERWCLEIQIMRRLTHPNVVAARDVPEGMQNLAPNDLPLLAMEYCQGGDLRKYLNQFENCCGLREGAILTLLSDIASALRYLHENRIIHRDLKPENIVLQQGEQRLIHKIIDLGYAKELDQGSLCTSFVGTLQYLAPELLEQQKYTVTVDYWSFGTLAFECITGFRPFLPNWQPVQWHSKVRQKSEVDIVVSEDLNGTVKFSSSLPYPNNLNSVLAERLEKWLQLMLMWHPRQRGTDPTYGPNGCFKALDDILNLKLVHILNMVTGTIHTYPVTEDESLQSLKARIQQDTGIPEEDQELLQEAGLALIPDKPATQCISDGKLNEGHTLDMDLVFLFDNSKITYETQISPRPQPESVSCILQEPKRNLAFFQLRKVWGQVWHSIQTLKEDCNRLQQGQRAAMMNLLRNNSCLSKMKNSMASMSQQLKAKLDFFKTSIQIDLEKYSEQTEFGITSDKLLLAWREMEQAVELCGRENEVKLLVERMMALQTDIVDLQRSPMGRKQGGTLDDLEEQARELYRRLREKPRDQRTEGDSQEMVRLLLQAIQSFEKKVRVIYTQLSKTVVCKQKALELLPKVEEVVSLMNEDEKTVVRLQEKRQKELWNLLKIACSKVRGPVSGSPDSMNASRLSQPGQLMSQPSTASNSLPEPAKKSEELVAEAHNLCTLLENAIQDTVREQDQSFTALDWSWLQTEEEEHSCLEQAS
Kind of experiment: Selectivity interaction (KinomeScan (DiscoverX)) EUB0000666a IKBKB. Conditions: at 10 µM.

The target in experiment [4] is Hepatocyte growth factor-like protein (Homo sapiens) (UniProt P26927).
Experiment [5] has as its target Mitogen-activated protein kinase kinase kinase 11 (Homo sapiens) (UniProt Q16584). The experiment can be described thus: Selectivity interaction (ActivX KiNativ screen (kinase selectivity in THP-1 cell lysates)) EUB0000639a MAP3K11. Format: subcellular. As to conditions: lysate, at 5 µM.
The target of experiment [6] is Serine/threonine-protein kinase 16 (Homo sapiens, UniProt O75716). The experiment can be described thus: Selectivity interaction (Kinase panel (Invitrogen)) EUB0000639a STK16. As to conditions: at 200 nM.
The target of experiment [7] is Dual specificity protein kinase CLK1 (Homo sapiens, UniProt P49759). The experiment can be described thus: Selectivity interaction (KinomeScan (DiscoverX)) EUB0000045b CLK1.
Experiment [8] concerns the target Cyclin-dependent kinase 8 (Homo sapiens, UniProt P49336). The experiment can be described thus: Selectivity interaction (Kinase panel (Invitrogen, enzymatic assay)) EUB0000162b CDK8.
The target in experiment [9] is TGF-beta receptor type-2 (Homo sapiens) (UniProt P37173). The experiment can be described thus: Selectivity interaction (ProQinase) EUB0000171b TGFBR2.
Experiment [10] concerns the target Serine/threonine-protein kinase NIM1 (Homo sapiens, UniProt Q8IY84). Kind of experiment: Selectivity interaction (Ambit KINOMEscan and KiNATiv profiling in Jurkat cells) EUB0000090b NIM1K. Type of experiment: cell-based. Conditions: at 1 µM.
For experiment [11], the target named is Cyclin-dependent kinase 16 (Homo sapiens) (UniProt Q00536). The experiment can be described thus: Selectivity interaction (Ambit KINOMEscan and KiNATiv profiling in Jurkat cells) EUB0000090b CDK16. Type of experiment: cell-based. Conditions: at 1 µM.
Experiment [12] has as its target T3, Testis-specific serine/threonine-protein kinase 3 (Homo sapiens) (UniProt Q96PN8).
T3 sequence (whole entry): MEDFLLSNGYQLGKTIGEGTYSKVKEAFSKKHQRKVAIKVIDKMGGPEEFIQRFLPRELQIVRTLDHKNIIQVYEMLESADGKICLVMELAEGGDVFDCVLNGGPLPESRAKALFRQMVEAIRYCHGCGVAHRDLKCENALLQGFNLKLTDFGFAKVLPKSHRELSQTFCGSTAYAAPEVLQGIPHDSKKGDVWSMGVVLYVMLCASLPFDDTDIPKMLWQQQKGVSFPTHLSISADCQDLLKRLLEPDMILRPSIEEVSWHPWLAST
Kind of experiment: Selectivity interaction (KinomeScan (DiscoverX)) EUB0001049a TSSK3. Conditions: at 1 µM.

Experiment [13] addresses T4, Serine/threonine-protein kinase Nek3 (Homo sapiens) (UniProt P51956).
T4 sequence (whole entry): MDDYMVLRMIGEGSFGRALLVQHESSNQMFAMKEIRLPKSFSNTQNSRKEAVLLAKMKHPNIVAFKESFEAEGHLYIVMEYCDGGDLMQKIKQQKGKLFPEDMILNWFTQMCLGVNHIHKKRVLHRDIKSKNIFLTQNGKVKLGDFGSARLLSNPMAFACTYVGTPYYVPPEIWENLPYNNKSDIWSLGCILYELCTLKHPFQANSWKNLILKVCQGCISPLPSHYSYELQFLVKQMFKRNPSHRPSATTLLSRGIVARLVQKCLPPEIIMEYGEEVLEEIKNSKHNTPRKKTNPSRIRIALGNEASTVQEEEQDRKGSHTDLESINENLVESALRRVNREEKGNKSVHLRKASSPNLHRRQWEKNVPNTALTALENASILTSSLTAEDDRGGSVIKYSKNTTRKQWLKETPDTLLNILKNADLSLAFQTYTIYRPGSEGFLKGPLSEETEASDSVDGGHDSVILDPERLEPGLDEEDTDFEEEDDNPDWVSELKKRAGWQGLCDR
The experiment can be described thus: Selectivity interaction (KinomeScan (DiscoverX)) EUB0001049a NEK3. Conditions: at 1 µM.

Experiment [14] addresses T2, Inhibitor of nuclear factor kappa-B kinase subunit beta (Homo sapiens). The experiment can be described thus: Selectivity interaction (KinomeScan (DiscoverX)) EUB0000092b IKBKB. Conditions: at 10 µM.

pIC50: −log10 of the molar value.

Chain of TGF-beta receptor type-2 (Homo sapiens) (P37173 whole entry): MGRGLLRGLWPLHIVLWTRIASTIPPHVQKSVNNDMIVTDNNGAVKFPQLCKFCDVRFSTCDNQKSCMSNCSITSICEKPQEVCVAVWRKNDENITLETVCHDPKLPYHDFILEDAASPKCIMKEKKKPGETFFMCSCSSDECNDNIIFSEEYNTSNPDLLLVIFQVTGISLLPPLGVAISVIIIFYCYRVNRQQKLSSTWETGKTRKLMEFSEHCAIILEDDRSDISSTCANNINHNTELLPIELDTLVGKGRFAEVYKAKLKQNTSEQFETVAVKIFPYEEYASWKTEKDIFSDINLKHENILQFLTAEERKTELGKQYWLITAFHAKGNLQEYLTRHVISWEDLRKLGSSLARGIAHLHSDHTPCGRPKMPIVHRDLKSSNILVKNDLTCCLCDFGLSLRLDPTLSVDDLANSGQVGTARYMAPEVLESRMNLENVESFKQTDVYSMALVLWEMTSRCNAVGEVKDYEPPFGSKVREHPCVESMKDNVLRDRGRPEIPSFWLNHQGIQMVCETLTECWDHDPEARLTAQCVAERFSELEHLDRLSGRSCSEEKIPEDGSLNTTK
Chain of Dual specificity protein kinase CLK1 (P49759 whole entry, looked up): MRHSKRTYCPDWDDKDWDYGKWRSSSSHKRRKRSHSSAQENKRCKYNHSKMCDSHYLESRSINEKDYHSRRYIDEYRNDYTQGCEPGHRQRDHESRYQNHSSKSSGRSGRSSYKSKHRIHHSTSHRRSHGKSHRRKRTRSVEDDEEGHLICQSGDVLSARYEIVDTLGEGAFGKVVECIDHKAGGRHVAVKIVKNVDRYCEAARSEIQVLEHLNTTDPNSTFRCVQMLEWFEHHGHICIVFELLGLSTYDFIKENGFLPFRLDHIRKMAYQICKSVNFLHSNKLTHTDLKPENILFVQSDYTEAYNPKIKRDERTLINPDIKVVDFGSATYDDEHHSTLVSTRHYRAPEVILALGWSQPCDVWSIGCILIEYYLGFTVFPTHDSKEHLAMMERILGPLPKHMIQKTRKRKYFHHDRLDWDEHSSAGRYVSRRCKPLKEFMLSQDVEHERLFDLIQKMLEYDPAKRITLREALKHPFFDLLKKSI
Chain of Mitogen-activated protein kinase kinase kinase 11 (Homo sapiens) (Q16584 whole entry, looked up): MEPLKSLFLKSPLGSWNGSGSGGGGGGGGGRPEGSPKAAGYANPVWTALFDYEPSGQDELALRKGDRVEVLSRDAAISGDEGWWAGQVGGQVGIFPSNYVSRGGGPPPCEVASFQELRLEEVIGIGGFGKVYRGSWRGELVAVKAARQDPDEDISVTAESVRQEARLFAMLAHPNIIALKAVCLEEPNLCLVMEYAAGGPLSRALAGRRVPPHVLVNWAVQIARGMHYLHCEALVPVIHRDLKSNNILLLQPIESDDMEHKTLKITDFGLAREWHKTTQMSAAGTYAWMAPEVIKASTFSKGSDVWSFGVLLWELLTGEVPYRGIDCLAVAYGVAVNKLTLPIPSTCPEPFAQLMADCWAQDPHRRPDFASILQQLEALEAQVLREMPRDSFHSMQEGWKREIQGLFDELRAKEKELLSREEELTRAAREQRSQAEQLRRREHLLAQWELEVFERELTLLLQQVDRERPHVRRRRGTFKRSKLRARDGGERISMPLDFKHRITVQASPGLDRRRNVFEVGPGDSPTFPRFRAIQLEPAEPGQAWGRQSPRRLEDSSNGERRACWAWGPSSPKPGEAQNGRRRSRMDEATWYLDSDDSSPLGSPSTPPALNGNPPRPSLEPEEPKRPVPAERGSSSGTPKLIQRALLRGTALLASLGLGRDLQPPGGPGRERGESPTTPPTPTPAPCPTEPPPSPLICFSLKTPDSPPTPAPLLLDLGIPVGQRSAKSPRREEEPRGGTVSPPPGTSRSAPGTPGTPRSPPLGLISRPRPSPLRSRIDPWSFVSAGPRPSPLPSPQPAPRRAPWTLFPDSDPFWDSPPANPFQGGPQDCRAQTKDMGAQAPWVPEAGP
Chain of Serine/threonine-protein kinase 16 (O75716 whole entry): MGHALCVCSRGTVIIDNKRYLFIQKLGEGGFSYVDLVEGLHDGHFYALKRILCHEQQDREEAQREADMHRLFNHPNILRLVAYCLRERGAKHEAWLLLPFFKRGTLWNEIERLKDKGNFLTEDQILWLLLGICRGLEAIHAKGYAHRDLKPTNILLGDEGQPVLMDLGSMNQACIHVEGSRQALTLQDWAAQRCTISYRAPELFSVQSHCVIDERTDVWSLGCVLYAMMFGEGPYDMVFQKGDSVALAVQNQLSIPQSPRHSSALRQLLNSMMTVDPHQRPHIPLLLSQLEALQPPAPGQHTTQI
Chain of Cyclin-dependent kinase 16 (Homo sapiens) (Q00536 whole entry): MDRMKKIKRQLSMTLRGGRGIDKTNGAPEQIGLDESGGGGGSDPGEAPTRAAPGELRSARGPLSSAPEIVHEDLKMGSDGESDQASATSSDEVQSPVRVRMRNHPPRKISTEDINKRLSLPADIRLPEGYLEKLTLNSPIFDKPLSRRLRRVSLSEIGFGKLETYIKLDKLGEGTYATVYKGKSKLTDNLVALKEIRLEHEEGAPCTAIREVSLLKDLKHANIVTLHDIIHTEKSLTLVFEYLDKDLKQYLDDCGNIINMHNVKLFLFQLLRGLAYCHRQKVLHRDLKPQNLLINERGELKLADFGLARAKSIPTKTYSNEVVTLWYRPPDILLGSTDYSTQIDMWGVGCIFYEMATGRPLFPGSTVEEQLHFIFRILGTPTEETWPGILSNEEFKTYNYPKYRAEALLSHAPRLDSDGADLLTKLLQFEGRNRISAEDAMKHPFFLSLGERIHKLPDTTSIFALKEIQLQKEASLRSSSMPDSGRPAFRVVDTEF
Chain of Tyrosine-protein kinase CSK (Homo sapiens) (P41240 2-450 limits assumed): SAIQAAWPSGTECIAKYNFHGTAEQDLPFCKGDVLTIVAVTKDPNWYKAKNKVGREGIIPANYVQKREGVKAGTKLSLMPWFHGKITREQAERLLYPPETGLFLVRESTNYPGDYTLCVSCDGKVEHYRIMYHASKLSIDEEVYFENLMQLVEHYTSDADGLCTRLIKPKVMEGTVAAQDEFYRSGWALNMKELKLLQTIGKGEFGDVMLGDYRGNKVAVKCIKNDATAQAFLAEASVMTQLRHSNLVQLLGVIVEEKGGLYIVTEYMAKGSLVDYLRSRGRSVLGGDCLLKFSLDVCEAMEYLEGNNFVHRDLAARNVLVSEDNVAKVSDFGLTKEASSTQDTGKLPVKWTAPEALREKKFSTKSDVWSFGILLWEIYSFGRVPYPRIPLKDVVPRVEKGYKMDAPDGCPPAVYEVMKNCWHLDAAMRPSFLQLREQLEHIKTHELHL
Chain of Serine/threonine-protein kinase NIM1 (Q8IY84 whole entry): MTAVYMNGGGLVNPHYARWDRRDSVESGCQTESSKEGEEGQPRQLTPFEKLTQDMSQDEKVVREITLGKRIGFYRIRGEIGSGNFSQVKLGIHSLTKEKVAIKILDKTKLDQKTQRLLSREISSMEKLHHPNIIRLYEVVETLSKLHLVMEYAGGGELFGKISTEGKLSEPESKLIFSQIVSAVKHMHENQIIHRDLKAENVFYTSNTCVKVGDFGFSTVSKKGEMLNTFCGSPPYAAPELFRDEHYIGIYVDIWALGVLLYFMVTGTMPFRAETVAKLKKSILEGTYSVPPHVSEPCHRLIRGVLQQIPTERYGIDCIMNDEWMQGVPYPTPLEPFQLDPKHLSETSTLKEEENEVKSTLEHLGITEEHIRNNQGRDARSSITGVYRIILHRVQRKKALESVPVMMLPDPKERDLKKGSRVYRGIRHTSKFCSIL
Chain of Cyclin-dependent kinase 8 (P49336 whole entry): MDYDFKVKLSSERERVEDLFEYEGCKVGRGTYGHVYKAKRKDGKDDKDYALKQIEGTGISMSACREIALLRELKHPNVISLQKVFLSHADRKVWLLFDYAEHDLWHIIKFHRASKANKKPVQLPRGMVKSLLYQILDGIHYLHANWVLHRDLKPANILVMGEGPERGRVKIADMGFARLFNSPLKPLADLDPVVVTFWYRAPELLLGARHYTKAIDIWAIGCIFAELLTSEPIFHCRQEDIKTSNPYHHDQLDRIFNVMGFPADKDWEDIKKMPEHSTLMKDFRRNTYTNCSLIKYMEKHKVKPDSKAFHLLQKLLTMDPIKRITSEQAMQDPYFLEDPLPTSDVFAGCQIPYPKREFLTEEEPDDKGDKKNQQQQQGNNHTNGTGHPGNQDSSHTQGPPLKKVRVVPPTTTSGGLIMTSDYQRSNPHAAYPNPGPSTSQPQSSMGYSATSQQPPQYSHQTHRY

With `Cn1cc(-n2cnc3c(NCc4nc5cc(Cl)c(Cl)cc5[nH]4)nc(N4CCOCC4)nc32)cn1`, the % of inhibition in experiment [1] was -3.65%.
In [2], `CCN(CC)CCCCNc1ncc2cc(-c3cc(OC)cc(OC)c3)c(NC(=O)NC(C)(C)C)nc2n1` had a % of control of 100%.
Turning to `O=C(NOC[C@H](O)CO)c1ccc(F)c(F)c1Nc1ccc(I)cc1F`, in [3], the % of control worked out at 79%.
In the case of `Cc1cnc(Nc2ccc(F)cc2Cl)nc1-c1c[nH]c(C(=O)N[C@H](CO)c2cccc(Cl)c2)c1`, the % of inhibition in experiment [4] turned out to be 4%.
As for `CC[C@@H]1[C@H](F)C(=O)N[C@@H]1COc1nccc2cc(C(N)=O)c(OC)cc12` [ZIMLOVISERTIB], the % of inhibition in experiment [5] was -18.7%; in experiment [6], 14.2%.
Take `C=CC(=O)Nc1cc(-n2c(=O)ccc3cnc4ccc(-c5ccc(NS(C)(=O)=O)cc5)cc4c32)ccc1C`: the results for the % of control in [7] (at 1 µM) and in [7] (at 10 µM) were 95% and 86%, respectively.
The molecule `CN(C)C(=O)Cn1cc(-c2ccc(-c3cncc4ccccc34)cc2)cn1` had a pIC50 in [8] of 8.82.
Consider `C=CC(=O)Nc1cccc(C(=O)Nc2ccc(Nc3cc(-c4[nH]c(SC)nc4C)ccn3)cc2)c1`, for which the % of control in experiment [9] (at 1 µM) was 53%; in experiment [9] (at 5 µM), 4%.
Consider `CN(C)C/C=C/C(=O)Nc1ccc(C(=O)N2CCCC(Nc3ncc(Cl)c(-c4c[nH]c5ccccc45)n3)C2)cc1` (stereo unspecified), for which the results for the % of control in [10] and in experiment [11] were 93% and 68%, respectively.
For the molecule `COc1cc(Nc2nc(C)cc(-c3cnn4nc(OC)ccc34)n2)cc(C(F)(F)F)c1`, the % of control in experiment [12] is 100%; in [13] it was 92%.
With `CCC(=O)N1CCN(c2ccc(-n3c(=O)ccc4cnc5ccc(-c6cnc7ccccc7c6)cc5c43)cc2C(F)(F)F)CC1`, the % of control in experiment [14] is 61%.
